How the values were obtained:
[1] = DPH fluorescence quenching, dissociation constant with MM liposome membrane; format: binding; details: 37 °C
Method: (§1) Two types of liposomes were used to study interactions with biological membranes: liposomes mimicking the composition of cancer cell membranes (mimic membrane liposome—MM) and liposomes formed from lipids extracted from human blood erythrocyte membranes (red blood cell membrane liposome—RBCM). […] Both lipids, dissolved in chloroform (MM liposome) and n-decane (RBCM liposome), were evaporated under a nitrogen atmosphere, and then dried in a desiccator for 90 min under a vacuum. The obtained dry lipid film was hydrated in phosphate buffer, pH 7.4, obtaining a concentration of 0.1 mg/ml, and then vortexed for one minute until a homogeneous, milky suspension was observed. The mixture was sonicated (Sonic, Milano, Italia) for 15 min keeping the sample in a bath of ice water, thus providing a cooling temperature of 0 °C. The suspension was then processed (extrusion) through polycarbonate filters with pore diameters of 100 and 200 nm using a Lipex extruder (Evonik). Liposomes, which had been prepared according to this procedure, was used in fluorimetric studies.
(§2) The phenomenon of quenching the fluorescence of the DPH probe by biologically active substances enabled us to evaluate the partition coefficient (Kd, dissociation constant) of anthocyanins with both MM and RBCM liposome membranes. For this purpose, changes in the fluorescence intensity of this probe were checked and the coefficient was calculated using the equation[48]:2 1/F0/F-1=Kd/[liposomes]×1/[anthocyanins]+1/liposomes where F0—fluorescence intensity in the absence of anthocyanins (control sample), F—fluorescence intensity in the presence of anthocyanins, [liposomes]—concentration of liposomes in mg/ml, [anthocyanins]—concentration of anthocyanins tested mg/ml.
(§3) Liposomes (the concentration of lipids in the sample was 0.1 mg/ml) were incubated for 30 min with the appropriate probe (dissolved in DMF, 1 µM concentration), and then the tested anthocyanins were added (final concentration of 1 to 30 µM). The control sample consisted of liposomes and a fluorescent probe. Fluorescence was measured on a fluorimeter (Cary Eclipse, Varian, San Diego, USA) at 37 °C. The excitation wavelengths λex and emission wavelengths λem respectively: MC540—λexc = 540 nm, λem = 590 nm; DPH—λexc = 360 nm, λem = 425 nm. nm; TMA-DPH—λexc = 340 nm, λem = 430 nm.

[2] = DPH probe fluorescence anisotropy in RBCM liposomes; set-up: species or system human; details: RBCM, negative = increase in anisotropy
[3] = MC540 probe fluorescence intensity in MM liposomes; details: 37 °C, positive = decrease
Method: as §1
(§4) To investigate these properties three fluorescent probes were used: MC540, TMA-DPH, and DPH. MC540 localizes to the outer, hydrophilic part of the membrane, within the region of the glycerol skeleton[44]. Changes in the fluorescence intensity of this probe were formulated as the relative change in intensity to the control as a function of anthocyanins concentration. The TMA-DPH and DPH probes are supposed to locate nearer to the interface and in the hydrophobic region, respectively[45]. The measurement of changes in the anisotropy of the TMA-DPH and DPH probes allowed us to reflect the mobility of the fluorescent probes in the membrane, and therefore to determine the fluidity of the bilayer[46]. Fluorescence anisotropy was calculated using the formula[47]:1 A=I‖-GI⊥/I‖+2GI⊥ where I‖ and I⊥ are the intensity of fluorescence in parallel and perpendicular directions, to the plane of polarization of the excitation wave, respectively. G is an apparatus constant that depends on the emission wavelength.
as §3

pHbApr-1-Neo plasmid DNA = test: TCSPC-FCS of PicoGreen-labelled plasmid DNA with anthocyanins; format: binding
Method: To evaluate the biological interaction with DNA molecules the anthocyanins were initially dissolved in ETOH (1 mM). […] Mixing of such solutions with the aqueous DNA solutions used in the studies never exceeded 1% concentration ETOH (v/v) in the final solution. The DNA plasmid was labelled by PicoGreen (CPicoGreen/CDNAbp = 0.02)[52]. The pHbApr-1-Neo plasmid (10 kbp and contour length 3.4 µm) was a generous gift from the laboratory of Prof. Maciej Ugorski (Department of Biochemistry and Molecular Biology, Wrocław University of Environmental and Life Sciences Wroclaw, Poland). PicoGreen-labelled DNA samples mixed with the appropriate amount of anthocyanins were left overnight and then measured. The increasing concentration of anthocyanins in the tested samples was expressed as the ratio of the molar concentration of anthocyanins per molar concentration of DNA base pairs in a given sample (comp/bp). The 100 µl samples were measured in Ibidi 8-well chambers. Each point on the graph is a single sample (average of 10 measurements). All measurements were performed at room temperature (25 °C). Time-correlated single-photon counting fluorescence correlation spectroscopy (TCSPC-FCS) was used to study the interaction of plasmid DNA at the single molecule level with all tested anthocyanins. […] Low power of 1uW (at the back aperture of the objective) was chosen to minimize photobleaching and saturation. In the detection plane, a pinhole (50um in diameter) was used and the signal was collected by a single photon avalanche diode (SPAD, Microphoton Devices, Bolzano, Italy). Photon arrival times were stored using fast electronics (Picoharp 300, PicoQuant) in time-tagged time-resolved recording mode. Two independent times were assigned to each detected photon: (1) a time after the beginning of the measurement and (2) a time after the previous laser pulse. The FCS data analysis was done using home-built routines (DevC++, Bloodshed Software and OriginPro70, OriginLab Corporation). The TCSPC data analysis was performed using SymPhoTime software (PicoQuant). Further details of the data evaluation are given elsewhere.

[4] = TMA-DPH probe fluorescence anisotropy in RBCM liposomes; set-up: species or system human; details: negative = increase in anisotropy
[5] = MC540 probe fluorescence intensity in RBCM liposomes; set-up: species or system human; details: 37 °C, positive = decrease
Method: as §1, §4, §3

[6] = TMA-DPH probe fluorescence anisotropy in MM liposomes; details: negative = increase in anisotropy
Method: as §1, §4, §3

[7] = DPH fluorescence quenching, dissociation constant with RBCM liposome membrane; format: binding, human; details: 37 °C
Method: as §1, §2, §3

[8] = DPH probe fluorescence anisotropy in MM liposomes; details: MM, negative = increase in anisotropy
Method: as §1, §4, §3

HSA = tested on: HSA; set-up: method as in earlier work; details: cited from earlier work
[9] = target: human serum albumin (HSA) (Homo sapiens, UniProt P02768); test: Quenching of natural fluorescence of human serum albumin; format: binding; details: HSA […] 10^–5 M, 37 °C
Sequence of human serum albumin (HSA) (P02768 25-609): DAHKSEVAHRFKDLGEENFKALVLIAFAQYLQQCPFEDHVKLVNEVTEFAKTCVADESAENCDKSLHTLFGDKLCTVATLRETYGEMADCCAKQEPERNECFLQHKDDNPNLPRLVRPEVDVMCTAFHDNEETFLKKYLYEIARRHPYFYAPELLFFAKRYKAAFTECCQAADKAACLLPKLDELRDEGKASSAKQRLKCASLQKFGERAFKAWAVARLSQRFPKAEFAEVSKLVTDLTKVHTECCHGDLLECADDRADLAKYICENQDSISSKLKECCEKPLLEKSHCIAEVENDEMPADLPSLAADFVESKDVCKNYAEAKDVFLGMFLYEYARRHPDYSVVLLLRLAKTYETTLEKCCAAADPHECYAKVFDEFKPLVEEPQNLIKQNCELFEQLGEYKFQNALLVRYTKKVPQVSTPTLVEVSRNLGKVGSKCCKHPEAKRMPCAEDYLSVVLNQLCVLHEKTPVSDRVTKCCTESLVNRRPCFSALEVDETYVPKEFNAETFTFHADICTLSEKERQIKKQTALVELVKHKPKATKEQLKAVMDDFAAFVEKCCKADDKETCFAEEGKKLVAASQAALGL
Method: The phenomenon of quenching the natural fluorescence of human serum albumin (HSA) was used to investigate the potential interaction of anthocyanins with this protein. […] Anthocyanins with concentrations ranging from 1 to 30 µM were added to HSA dissolved in phosphate buffer (1.5 × 10^–5 M) and then incubated at 37 °C for 20 min. Emission spectra were performed on a fluorimeter Cary Eclipse (Varian, San Diego, USA) at 37 °C. HSA fluorescence was excited with a wavelength of λ = 280 nm, the emission was measured in the range from 286 to 460 nm, and the fluorescence intensity was read at 345 nm where the emission maximum of HSA was located.
The Stern–Volmer equation was used to thoroughly describe the quenching mechanism of natural fluorescence and to determine the bindings parameters of HSA: anthocyanin complexes:4 F0/F=1+Kqτ0Q=1+KSV[Q] where F0—fluorescence intensity in the absence of anthocyanins (control sample), F—fluorescence intensity in the presence of anthocyanins, KSV—Stern–Volmer quenching constant (KSV = Kq·τ0), [Q]—concentration of quencher (tested compound), Kq—bimolecular quenching constant, τ0—a lifetime of the fluorophore in the absence of quencher the fluorescence lifetime of a biopolymer is calculated as 5 × 10^–9 s[51].
The apparent binding constants (Kb) and the number of binding sites (n) can be calculated using the following equation:5 log(F0-F/F]=logKb+nlog[Q]
F0 and F are the fluorescence intensities before and after the addition of the quencher. From the linear plot of log (F0 − F)/F versus log [Q], the value of Kb was obtained from the intercept.

[10] = 30 µM, listed as delphinidin glucoside

- Kd [1]: 93.6 ± 19.5 µM
- Kd [7]: 13.4 ± 3.05 µM
- Stern Volmer constant KSV [9]: 20.09 ± 2.57 × 10^3 M^−1
- number of binding sites n [9]: 0.96 ± 0.03
SMILES: OCC1OC(Oc2cc3c(O)cc(O)cc3[o+]c2-c2cc(O)c(O)c(O)c2)C(O)C(O)C1O (centres unmarked) [Dp 3-glc, Delphinidin 3-O-glucoside]
- Changes in DPH anisotropy relative to the control ([2]; 1 µM): -6.55±0.37%
- Changes in DPH anisotropy relative to the control ([2]; 5 µM): -6.14±0.25%
- Changes in DPH anisotropy relative to the control ([2]; 10 µM): -6.03±0.39%
- Changes in DPH anisotropy relative to the control ([2]; 20 µM): -6.20±0.38%
- Changes in DPH anisotropy relative to the control ([2]; 30 µM): -6.30±0.39%
- Changes in MC540 fluorescence intensity relative to the control ([3]; 1 µM): 3.27±0.12%
- Changes in MC540 fluorescence intensity relative to the control ([3]; 5 µM): 5.73±0.30%
- Changes in MC540 fluorescence intensity relative to the control ([3]; 10 µM): 10.51±0.55%
- Changes in MC540 fluorescence intensity relative to the control ([3]; 20 µM): 20.30±0.93%
- Changes in MC540 fluorescence intensity relative to the control ([3]; 30 µM): 30.30±0.19%
- Changes in MC540 fluorescence intensity relative to the control [3, 10]: 30.3 ± 0.2%
- tD changes, times smaller than those caused by Pt3-glc (pHbApr-1-Neo plasmid DNA): more than 5 times
- lifetime (LT) (pHbApr-1-Neo plasmid DNA; 0 < comp/bp < 2, decrease from 4.25 ns): about 2.25 ns
- lifetime (LT), plateau (pHbApr-1-Neo plasmid DNA; 2 < comp/bp < 5): about 2.1 ns
- decrease in the diffusion time (tD) (pHbApr-1-Neo plasmid DNA; tested range of comp/bp from 0 to 5): 2.5 fold
- Changes in TMA-DPH anisotropy relative to the control ([4]; 1 µM): -2.73±0.14%
- Changes in TMA-DPH anisotropy relative to the control ([4]; 5 µM): -0.01±0.00%
- Changes in TMA-DPH anisotropy relative to the control ([4]; 10 µM): 2.57±0.07%
- Changes in TMA-DPH anisotropy relative to the control ([4]; 20 µM): 2.52±0.16%
- Changes in TMA-DPH anisotropy relative to the control ([4]; 30 µM): 1.15±0.03%
- Changes in MC540 fluorescence intensity relative to the control ([5]; 1 µM): 11.73±0.51%
- Changes in MC540 fluorescence intensity relative to the control ([5]; 5 µM): 17.29±0.54%
- Changes in MC540 fluorescence intensity relative to the control ([5]; 10 µM): 22.06±1.25%
- Changes in MC540 fluorescence intensity relative to the control ([5]; 20 µM): 36.70±4.24%
- Changes in MC540 fluorescence intensity relative to the control ([5]; 30 µM): 47.56±9.12%
- Changes in MC540 fluorescence intensity relative to the control [5, 10]: 47.6 ± 9.1%
- Changes in TMA-DPH anisotropy relative to the control ([6]; 1 µM): -4.62±0.05%
- Changes in TMA-DPH anisotropy relative to the control ([6]; 5 µM): -1.60±0.04%
- Changes in TMA-DPH anisotropy relative to the control ([6]; 10 µM): 0.26±0.005%
- Changes in TMA-DPH anisotropy relative to the control ([6]; 20 µM): 1.99±0.06%
- Changes in TMA-DPH anisotropy relative to the control ([6]; 30 µM): 0.41±0.01%
- Changes in DPH anisotropy relative to the control ([8]; 1 µM): -10.78±0.24%
- Changes in DPH anisotropy relative to the control ([8]; 5 µM): -12.62±0.18%
- Changes in DPH anisotropy relative to the control ([8]; 10 µM): -10.40±0.13%
- Changes in DPH anisotropy relative to the control ([8]; 20 µM): -7.80±0.10%
- Changes in DPH anisotropy relative to the control ([8]; 30 µM): -6.27±0.05%
- affinity for HSA compared to aglycone (HSA): tenfold lower

From paper PMC10412636, “An analysis of interactions between three structurally diverse anthocyanidins, as well as their glucosides, and model biological membranes, albumin, and plasmid DNA” (Scientific Reports, 2023)
